In brackets after ≈: the same amount, converted by molar mass. Read-outs that look alike come from different tables or passages of the source.

For one data set, the system named is heart. On the set-up: method as in Macallum et al. [1991]. The settings on record: oral, dog study; ref Macallum et al. [1991]; cited from earlier work.
A further data set deals with patients with COPD. On the set-up: method as in Mantell et al. [2009], [2010]. The conditions noted are these: ref Mantell et al. [2009], [2010]; cited from earlier work.
The nature of data set [1]: Lipophilicity (LogD), shake flask. The format is physicochemical. The conditions noted are these: octanol-water, phosphate buffer pH 7.4. On the procedure: (§1) • Human A2a and A2b receptor pharmacology: Chinese hamster ovary CHO-K1 cells stably expressing human A2a and A2b receptors were used to determine substances agonistic potency and intrinsic activity. […] The signal corresponding to adenosine at 100 μmol/L was used to define 100% intrinsic activity. • Human A3 receptor pharmacology: A3 receptor Gi coupling was measured by GTPγ ^35[S] filter assay at serial dilutions of compound using membranes from Perkin-Elmer. The signal corresponding to the maximal response of NECA at 100 μmol/L was set to 100% intrinsic activity. • Lipopolysaccharide (LPS)-induced TNFα production in primary human peripheral blood mononuclear cells (hTNFα PBMC) and rat mononuclears (rTNFα splenocytes): Human PBMC and rat mononuclear spleen cells were incubated with serial dilutions of compound and stimulated with LPS.
The octanol-water partition coefficient (LogD) was measured using the shake flask method. 600µL of 1-octanol was added to a vial with 6µL of 10mM DMSO-solution of the test compound. 600µL of 10mM sodium phosphate buffer adjusted to pH 7.4 was added and equilibrium was performed by vigorous shaking for ten minutes with an Eppendorf mixer. The phases were separated by centrifugation. The samples were analysed by HPLC with UV-detection at 254nm.

Data set [2] can be described thus: In vivo pharmacokinetics in rats (i.v., oral, intratracheal). As for the experimental part:
Rat PK was determined after an i.v. dose of 0.1μmol/kg (approximately 50μg/kg, 1ml/kg, TEG:H2O 50:50) given via a catheter in vena jugularis. The PK after oral administration was performed at a dose of 6μmol/kg (approximately 3mg/kg, 4ml/kg, 0.5% HPMC) given by gavage. Intratracheal PK was determined at 0.03 to 0.6μmol/kg (17 to 300μg/kg, 1ml/kg, in a vehicle containing sodium chloride (8.5mg/ml), EDTA (0.1mg/ml), citric acid (0.15mg/ml), sodium citrate (0.5mg/ml) and polysorbate 80 (0.2mg/mL) in purified water). The i.t. dose was given to anaesthetized (isofluran) rats, positioned at approximately 30° angle (head up) and the compound was administered in the trachea using a modified metal cannula. Rats were put back in their cages while regaining consciousness. Serial blood sampling of 100 to 200µl was performed after i.v. and p.o. dosing at pre-defined timepoints. Blood was mixed 1:4 with purified water containing heparin (10 to 30U/ml) in order to haemolyse the blood cells, and then placed in a 96-well plate and stored at –70°C until analysed. The dilution factor was accounted for in the data analysis. After i.t. dosing, animals were euthanized with isoflurane or pentobarbital at defined timepoints after dosing, blood samples taken from the vena jugularis or arteria carotis, handled and stored as described above. The rats were bled to drain as much blood as possible from the lungs. The lungs including the trachea were carefully dissected out with all non-relevant tissue removed, placed in pre-weighed vials and weighed. The lung vials were stored at –70°C until analyzed.
Lung tissue was frozen in liquid nitrogen and homogenised using a CryoPrep pneumatic hammer. The homogenisation of the tissue and the extraction of the compound were done in 4ml Ringer solution with an Adaptive Focused Acoustic Instrument. 50µl of the supernatant was transferred to a 96-well plate. All lung, blood and plasma samples were analysed by LC-MS/MS using a selective and sensitive method. Peak areas were used in comparison to those produced by the standard curve to determine parent compound concentrations. Homogenate concentrations were adjusted to account for the sample dilutions to give tissue concentrations.

Details of data set [3]: method as in Mantell et al. [2010]. The settings on record: ref Mantell et al. [2010]; cited from earlier work.
Data set [4] in a line: Plasma protein binding by equilibrium dialysis. It counts as in vitro ADME. The conditions noted are these: male, Wistar, pH 7.4, rat plasma, 10 μmol/L, read-out: fu rat (free unbound drug in plasma). On the procedure:
as §1
The plasma protein binding was determined in plasma from male Wistar rats at a compound concentration of 10μM by equilibrium dialysis against a phosphate buffer at pH 7.4 using a semi-permeable membrane with a molecular cut-off of 6-8KDa (Spectra/Por, Spectrum Laboratories Inc, US). The compounds were dialyzed for 18h at 37±1°C in an air incubator on an orbital shaker. The samples were analysed using LC-MS/MS.
On the technique in general: Equilibrium dialysis compares concentrations on both sides of a semipermeable membrane.

On the set-up of data set [5]: method as in Mantell et al. [2009], [2010]. The settings on record: over the dose range tested; ref Mantell et al. [2009], [2010]; cited from earlier work.
A short description of data set [6]: Substance solubility in phosphate buffer. It counts as physicochemical. The conditions noted are these: aqueous buffer, thermodynamic from solid; phosphate buffer pH 7.4, dry compound in solid state. As for the experimental part: as §1
Solubility was measured in phosphate buffer at pH 7.4 using dry compounds in solid state.

Data set [7] relates to LPS-induced TNFα production in rat splenocytes. Nature of the data set: LPS-induced TNFα production in rat mononuclear spleen cells (rTNFα splenocytes). It counts as cell-based. The settings on record: Splenocyte, LPS-stimulated TNFα release, rat splenocytes, average (SD). As for the experimental part: as §1
Procedures and assays were run in R10 buffer (RPMI 1640 Medium supplemented with GlutaMAX™ and HEPES (GIBCO-BRL), 10% fetal calf serum, penicillin and streptomycin (each 5000IU/ml)). Human PBMC were purified from heparinised blood by Ficoll separation (Ficoll, Amersham Pharmacia Biotech AB, Cat: 17-1440-03, Lot: 312170) and rat mononuclear cells were collected after rat spleen perfusion. Both cell preparations were followed by hypotonic lysis of residual erythrocytes. Serial dilutions of compounds were pre-incubated with 200 000 cells/well (96-well plate) for 45min in 37 °C (190µl). Cells were stimulated by 10µl LPS (final concentration 0.5ng/ml human and 150ng/ml rat; SIGMA Cat: L-4516, Lot: 104K4036) for 18h at 37 °C. TNFα release was measured by ELISA (^TmR&D Systems plates) according to the manufacturer’s instructions in cell free supernatant.

On to `OC[C@H]1O[C@@H](n2cnc3c(NCC(c4ccccc4)c4ccccc4)ncnc32)[C@H](O)[C@@H]1O` [DPEA, N-(2,2-diphenylethyl) adenosine], for which, in the data set with heart, the Myocardial findings entry was “myocardial degeneration and necrosis”.
In the case of `CCNC(=O)[C@H]1O[C@@H](n2cnc3c(NCC(c4ccccc4)c4ccccc4)nc(C(=O)NCCNC(=O)NC4CCN(c5ccccn5)CC4)nc32)[C@H](O)[C@@H]1O` [UK-432,097, 6-(2,2-diphenylethylamino)-9-[(2R,3R,4S,5S)-5-(ethylcarba-moyl)-3,4-dihydroxy-tetrahydrofuran-2-yl]-N-[2-[[1-(2-pyridyl)-4-piperidyl]carbamoylamino]ethyl]purine-2-carboxamide, reference compound], the “Efficacy in Phase II study” value with patients with COPD is listed as “failed to show efficacy”. This molecule showed a LogD in data set [1] of 3.4. In data set [2] (i.v., mean of n = 3), this molecule returned a Rat blood clearance of 37 mL/min per kg. Further, the half-life in data set [2] (lung, inhaled or intranasal, rat, intratracheal dosing, n = 2/time point, read-out: Lung t½ (terminal half-life in lung) (converted)) is 4 h. In addition, in data set [2] (other: intratracheal (i.t.), rat, i.t., ratio of lung concentration 24 h after dose to blood Cmax after same dose, read-out: Lung/blood split), the Kp at 24 h turned out to be 2.7. For the same molecule, in data set [2] (rat, i.t. dose 130 μg/kg, 6 h), the “Percentage of dose remaining in lung at 6 h” value is on record as “approximately 3%”. Also, in [3], the Clearance entry is reported as “rapid”, the Oral bioavailability result is given as “low”, the Plasma protein binding entry is recorded as “high” and the solubility result is listed as “low”. For the same molecule, the fraction unbound at 18 h, 10 μM in data set [4] worked out at 0.014. For the same molecule, the “Safety in Phase I clinical study” value in data set [5] was “no safety limitation”. This molecule also had a solubility in [6] of 12 µM (≈ 9.33 µg/mL). The molecule further registered an IC50 in data set [7] of 2.6 nM. For the same molecule, the Emax in [7] (read-out: rTNFα splenocytes Intrinsic activity) was determined as 60.9%.

Broadly, the LogD is the decadic logarithm of the distribution of all forms, ionised or not, between an organic phase and buffer at a given pH. In general, half-life refers to how long it takes for the measured level to halve. The solubility is the concentration that dissolves in the medium under given conditions. The IC50 is the concentration that inhibits the measured activity by half. Lower therefore signals higher potency.

Source of the values: article PMC4492750, “The discovery of a selective and potent A2a agonist with extended lung retention” (Pharmacology Research & Perspectives, 2015).
